Assay results from BindingDB's records for doi:10.1016/j.bmcl.2004.06.041 (Abbott Laboratories, 2004).
pIC50: −log10 of the molar value.

Biological target: Vascular endothelial growth factor receptor 2 (Homo sapiens, UniProt P35968)
Experiment: Homogeneous Time-resolved Fluorescence (HTRF) Assay
Settings: pH 7.4; 22 °C
From the text: The assay was using baculovirus-expressed recombinant protein kinase and biotinylated poly-Glu-Ala-Tyr substrate.

Chain of Vascular endothelial growth factor receptor 2 (P35968 whole entry): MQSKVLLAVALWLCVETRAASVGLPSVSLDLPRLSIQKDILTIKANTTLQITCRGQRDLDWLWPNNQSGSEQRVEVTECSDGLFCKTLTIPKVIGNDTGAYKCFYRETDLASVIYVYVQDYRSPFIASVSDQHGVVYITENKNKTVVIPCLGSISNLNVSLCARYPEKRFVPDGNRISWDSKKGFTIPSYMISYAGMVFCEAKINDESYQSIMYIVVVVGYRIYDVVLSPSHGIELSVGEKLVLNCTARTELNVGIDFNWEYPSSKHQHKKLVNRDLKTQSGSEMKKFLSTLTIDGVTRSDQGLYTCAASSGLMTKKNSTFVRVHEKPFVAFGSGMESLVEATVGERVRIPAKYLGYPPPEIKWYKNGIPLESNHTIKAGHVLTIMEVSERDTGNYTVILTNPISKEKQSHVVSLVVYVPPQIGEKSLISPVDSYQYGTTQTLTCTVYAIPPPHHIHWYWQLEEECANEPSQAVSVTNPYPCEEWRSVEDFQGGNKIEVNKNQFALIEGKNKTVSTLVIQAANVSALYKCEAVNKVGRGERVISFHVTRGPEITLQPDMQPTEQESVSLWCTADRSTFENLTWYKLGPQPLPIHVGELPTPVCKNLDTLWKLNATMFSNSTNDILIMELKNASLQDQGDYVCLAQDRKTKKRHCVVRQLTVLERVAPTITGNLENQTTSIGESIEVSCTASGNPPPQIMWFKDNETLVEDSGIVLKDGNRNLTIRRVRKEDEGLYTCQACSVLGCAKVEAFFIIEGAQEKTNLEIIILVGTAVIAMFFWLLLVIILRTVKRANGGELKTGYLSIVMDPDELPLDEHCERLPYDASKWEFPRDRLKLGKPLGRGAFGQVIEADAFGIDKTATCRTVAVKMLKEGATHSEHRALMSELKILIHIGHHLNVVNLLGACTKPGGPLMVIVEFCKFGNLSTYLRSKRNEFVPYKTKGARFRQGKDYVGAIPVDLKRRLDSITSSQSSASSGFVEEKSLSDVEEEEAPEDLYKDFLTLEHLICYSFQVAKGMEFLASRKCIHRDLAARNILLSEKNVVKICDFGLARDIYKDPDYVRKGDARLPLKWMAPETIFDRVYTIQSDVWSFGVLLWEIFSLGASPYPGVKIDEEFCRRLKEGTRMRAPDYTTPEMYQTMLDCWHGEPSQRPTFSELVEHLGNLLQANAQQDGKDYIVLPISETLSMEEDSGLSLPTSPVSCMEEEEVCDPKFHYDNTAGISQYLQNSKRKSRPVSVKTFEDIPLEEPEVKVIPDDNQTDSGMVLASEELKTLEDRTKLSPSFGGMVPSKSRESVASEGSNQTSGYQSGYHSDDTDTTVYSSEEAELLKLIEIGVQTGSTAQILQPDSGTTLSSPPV

Row | pIC50 | Compound
1 | 6.58 | COc1cc(-c2nn(C3CCC(N4CCN(C)CC4)CC3)c3ncnc(N)c23)ccc1NC(=O)Nc1ccccc1 [1-(4-{(S)-4-Amino-1-[4-(4-methyl-piperazin-1-yl)-cyclohexyl]-1H-pyrazolo[3,4-d]pyrimidin-3-yl}-2-methoxy-phenyl)-3-phenyl-urea]
2 | < 4.30 | COc1cc(-c2nn(C3CCC(N4CCN(C)CC4)CC3)c3ncnc(N)c23)ccc1NC(=O)c1ccccc1 [N-(4-{(S)-4-Amino-1-[4-(4-methyl-piperazin-1-yl)-cyclohexyl]-1H-pyrazolo[3,4-d]pyrimidin-3-yl}-2-methoxy-phenyl)-benzamide]
